Consider 15 molecules from ChEMBL document CHEMBL1132499, “NMR-based discovery of phosphotyrosine mimetics that bind to the Lck SH2 domain” (Bioorg Med Chem Lett, 1999).

For orientation: Kd means a measure of binding affinity in units of concentration.

For this assay, the target named is Tyrosine-protein kinase Lck (Homo sapiens, UniProt P06239). Briefly: Binding affinity against Lck SH2 domain.
Chain of Tyrosine-protein kinase Lck (P06239 whole entry, the tested form may be a part): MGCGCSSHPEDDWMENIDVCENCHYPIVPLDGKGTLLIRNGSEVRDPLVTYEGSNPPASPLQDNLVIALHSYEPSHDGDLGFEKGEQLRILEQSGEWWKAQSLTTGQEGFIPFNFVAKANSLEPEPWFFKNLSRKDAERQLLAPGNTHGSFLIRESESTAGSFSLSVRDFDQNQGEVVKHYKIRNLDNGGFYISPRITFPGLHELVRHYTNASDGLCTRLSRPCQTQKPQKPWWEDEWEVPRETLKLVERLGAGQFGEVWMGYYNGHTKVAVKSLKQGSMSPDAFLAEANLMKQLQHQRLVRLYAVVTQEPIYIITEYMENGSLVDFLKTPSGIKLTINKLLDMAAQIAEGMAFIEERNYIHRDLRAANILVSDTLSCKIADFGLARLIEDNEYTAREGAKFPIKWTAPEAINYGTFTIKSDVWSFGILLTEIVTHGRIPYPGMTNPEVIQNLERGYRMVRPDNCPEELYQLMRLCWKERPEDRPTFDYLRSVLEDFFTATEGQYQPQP

For `O=P(O)(O)c1cccc2ccccc12`, the Kd worked out at 1500 µM.

Turning to `Cc1nccn1C(=O)c1ccccc1C(=O)O`, the Kd came to 1600 µM.

In turn, `O=C(O)c1ccccc1C(=O)O` [PHTHALIC ACID] had a Kd of 1700 µM. This Kd and that of the molecule before are within 1.5-fold of each other.

`O=C(O)c1ccccc1C(=O)n1ccnc1` displayed a dissociation constant (Kd) of 1300 µM.

On to `O=P(O)(O)Cc1ccccc1` [BENZYLPHOSPHONIC ACID], for which the Kd was found to be 5900 µM.

In the case of `O=C(O)c1cc(C(=O)O)cc(C(=O)O)c1`, the affinity, expressed as Kd, was 200 µM. Against the preceding molecule, the Kd is about 30-fold lower.

The molecule `CCCN(CCC)C(=O)c1ccccc1C(=O)O` came in with a Kd of 1700 µM. Against the preceding molecule, the Kd is about 8.5-fold higher.

On to `CCOC(=O)C(Cc1ccc(OP(=O)(O)O)cc1)NC(C)=O` (stereo not given), for which the Kd was found to be 300 µM.

Consider `Cc1ccccc1CP(=O)(O)O`, for which the Kd was determined as 1000 µM.

Molecule `O=P(O)(O)Cc1cccc2ccccc12` registered a Kd of 1000 µM.

Molecule `O=P(O)(O)Oc1ccccc1` [PHENYL DIHYDROGEN PHOSPHATE] had an equilibrium dissociation constant (Kd) of 300 µM. Compared with the last molecule, the Kd is about 3.3-fold lower.

`O=P(O)(O)Oc1cccc2ccccc12` yielded an equilibrium dissociation constant (Kd) of 200 µM.

Turning to `NC(Cc1ccc(OP(=O)(O)O)cc1)C(=O)O` (stereo not given), the Kd stood at 400 µM. Against the preceding molecule, the Kd is about 2-fold higher.

As to `O=C(O)Cc1ccccc1` [PHENYLACETIC ACID], the Kd was more than 50000 µM.

In the case of `Cc1cc(C)nc(NC(=O)c2cc(C(=O)O)c(C(=O)Nc3cc(C)cc(C)n3)cc2C(=O)O)c1`, the Kd was found to be 60 µM.
